Measured values as given in patent US10245249B2, “Pharmaceutical compositions comprising nitroxyl donors” (Cardioxyl Pharmaceuticals, Inc., priority 2013, dated 2019).

Assays:
[1] = In vitro stability (half-life) in phosphate buffered saline (PBS) pH 7.4; type: physicochemical; conditions: pH 7.4, 5 μM, PBS pH 7.4, 37° C., read-out: T1/2 (minutes) PBS
Protocol: (§1) Certain compounds from Tables 1 and 2 and CXL-1020 were tested for their stability in phosphate buffered saline (PBS) and plasma. The assay system comprised (i) PBS, or plasma from rat, dog or human (at least 3 donors, male, pooled) at pH 7.4, and (ii) for tests conducted in plasma, an anticoagulant (sodium heparin or sodium citrate). Each test compound (5 μM) was incubated in PBS or plasma at 37° C. on a THERMOMIXER® with shaking. Three samples (n=3) were taken at each of seven sampling time points: 0, 10, 30, 60, 90, 180 and 360 minutes. The samples were immediately combined with 3 volumes (i.e., 3 times the volume of PBS or plasma) of acetonitrile containing 1% formic acid and an internal standard to terminate the reaction. AB SCIEX API 3000 LC-MS/MS analysis of the test compounds was performed without a standard curve. Half-lives (T1/2) of the test compounds were determined from graphs of the percent remaining values using the peak area response ratio. For compounds tested multiple times, the value provided in the Table represents an average of the replicate assays.

[2] = In vitro stability (half-life) in dog plasma; type: in vitro ADME; conditions: male, dog, plasma, pH 7.4, 5 μM, dog plasma pH 7.4 with anticoagulant, 37° C.; read-out: T1/2 (minutes) Dog
Protocol: as §1

[3] = In vitro stability (half-life) in human plasma; type: in vitro ADME; conditions: male, human plasma pH 7.4 with anticoagulant, 37° C., read-out: T1/2 (minutes) Human
Protocol: as §1

beagle dogs = test: Canine peripheral vein toxicity model, 24 hour infusion (clinical pathology markers of inflammation: WBC, fibrinogen, CRP); type: in vivo
Protocol: Key inflammatory markers measured include white blood cells (WBC), fibrinogen, and C-reactive protein (CRP).
After 24 hours of infusion, clinical pathology changes similar to those observed in previous studies using an implanted central catheter were detected.
Studies were conducted in male and female beagle dogs. Animals were allowed free access to drinking water and a commercial canine diet under standard laboratory conditions. Animals were fasted prior to blood sample collections when indicated by the study protocol. Fluorescent lighting was provided via an automatic timer for approximately 12 hours per day. On occasion, the dark cycle was interrupted intermittently due to study-related activities. Temperature and humidity were monitored and recorded daily and maintained to the maximum extent possible between 64° F. to 84° F. and 30% to 70%, respectively. The dogs were acclimated for a period of at least 1 week. During this period, the animals were weighed weekly and observed with respect to general health and any signs of disease. The animals were acclimated to wearing a jacket for at least three days prior to dose administration. Additionally, the animals were also acclimated to wearing an Elizabethan collar (e-collar) during the jacket acclimation.
Animals were catheterized the day prior to dose administration. A percutaneous catheter was placed (using aseptic technique and sterile bandaging) in the cephalic vein distal to the elbow. The animals were free-moving in their cages during continuous infusion dose administration. To facilitate continuous infusion dose administration, the peripheral catheter was attached to an extension set routed underneath a canine jacket and then attached to a tether infusion system. To prevent the animals from accessing/removing the peripherally placed percutaneous catheter, the catheterization site was bandaged using Vet Wrap and an e-collar was placed on the animals for the duration of the treatment (i.e., the catheterized period). During the pretreatment period, the venous catheter was infused continuously at a rate of approximately 2-4 mL/hr with 0.9% sodium chloride for injection, USP (saline) to maintain catheter patency. Prior to dosing, the infusion system was pre-filled (slow bolus infusion) with the respective dosing solution to ensure that dosing began as soon as the infusion pump was started. The infusion line was connected to a reservoir containing the control or test compound and the infusion was started. Test compositions were infused continuously, at a predetermined constant infusion rate (1 or 2 mL/kg/hr), for 24 hours and were compared at molar equivalent dose rates.
A detailed clinical examination of each animal was performed twice daily and body temperature measurements and blood samples for clinical pathology were collected from all animals pre-dose and 6 hours, 12 hours, 24 hours and 72 hours post start of composition infusion. At the termination of the study, all animals were euthanized at their scheduled necropsy and complete necropsy examinations were performed. Selected tissues were collected, fixed and stored for potential future microscopic examination. The cephalic vein containing the infusion catheter was dissected intact along with the brachial vein and examined along its entire length. The location of the catheter tip was marked on the unfixed specimen. After fixation, the specimen was trimmed and processed to slide to provide transverse histologic sections representing the catheter tip and surrounding tissues both proximal and distal to the catheter tip (i.e., 1 cm distal to the catheter tip, at the catheter tip, and 1, 5, 10, 15, and 20 cm proximal to the catheter tip). Relative to the catheter tip, “proximal” was defined as closer to the heart and “distal” was defined as further from the heart.
Each compound was formulated with CAPTISOL® (7% w/v) in sterile water at a pH of 4. […]

dogs [4] = test: Canine implanted central catheter 72 hour continuous infusion model (clinical and microscopic pathology of vasculature); type: in vivo
Protocol: To determine the cause of the inflammation and hind limb swelling, a series of 72-hour continuous infusion investigative studies were conducted over the following 6 months. […] The first site of inflammation, the catheter insertion site, caused the dog hind limb swelling and inflammation observed in the early-terminated follow-up study. Increasing infusate pH from 4 to 6 decreased inflammation, improving the inflammatory profile by approximately 3-fold (see FIG. 4).
Confirmation of this was obtained through evaluating the nitroxyl donors through detailed histopathology of the vasculature at the site of insertion of into the femoral vein (15 cm distal to the catheter tip), along the catheter track to the catheter tip, and past the tip downstream 20 cm.
A composite score was calculated from the sum of these findings scores. In FIG. 3, the cumulative histology composite score ranges from 0-2 (low severity) to 11-12 (high severity). […] The NOAEL values determined based on these microscopic pathology markers for a series of nitroxyl donors, expressed in molar equivalent dose rates (μg/kg/min) to CXL-1020, are provided in Table 8.

dogs [5] = test: Toxicological profile of compositions formulated at pH 4 or pH 6, 24 hour infusion at 3 μg/kg/min; type: in vivo; conditions: 1:1 molar donor:CAPTISOL, infused at 3 μg/kg/min, FIG. 4
Protocol: For samples at a pH of 4, the compositions were prepared by admixing a 1:1 molar ratio of the nitroxyl donor:CAPTISOL®, lyophilizing the admixture, then diluting the lyophilized admixture into D5W. For samples at a pH of 6, the compositions were prepared by admixing a 1:1 molar ratio of the nitroxyl donor:CAPTISOL®, lyophilizing the admixture, then diluting the lyophilized admixture into D5W with 5 mM potassium phosphate. Compounds were infused at a rate of 3 μg/kg/min.

[6] = Exploratory studies on the cause of CXL-1020 side effects (byproduct, alternative short half-life donors); type: in vivo; conditions: studies conducted with the byproduct
Protocol: Exploratory studies were continued to determine the cause of the undesirable side effects of CXL-1020 at the higher, but still clinically desirable, doses. […] Studies were conducted with alternative Nitroxyl donors that were structurally unrelated to CXL-1020 but had similar half-lives for nitroxyl donation (half-lives of about 2 minutes). In all instances, local vascular side effects at the catheter tip were observed.

| SMILES | half-life at 5 μM [1] [min] | half-life at 5 μM [2] [min] | half-life at 5 μM [3] [min] | NOAEL (μg/kg/min) (actual) (beagle dogs; based on clinical pathology markers (WBC, fibrinogen, CRP), 24 hour infusion, CAPTISOL 7% w/v, pH 4) [µg/kg/min] | NOAEL compared with CXL-1020 (beagle dogs; clinical pathology markers) | NOAEL (μg/kg/min) (molar equivalent to CXL-1020) (dogs [4]; based on microscopic pathology markers (edema, hemorrhage, vascular and perivascular inflammation)) [µg/kg/min] | toxicological profile relative to CXL-1020 (dogs [4]; microscopic pathology, Table 8) | effect of increasing infusate pH from approximately 4 to approximately 6 on toxicology (dogs [5]) | side effects [6] |
| --- | --- | --- | --- | --- | --- | --- | --- | --- | --- |
| O=S(=O)(NO)c1ccc(Cl)s1 [Compound 86, 5-Chloro-N-hydroxythiophene-2-sulfonamide] | 38 | 12 | 18 | 3 | significantly higher than that of CXL-1020 | ≥180 | substantially improved toxicological profile relative to CXL-1020 | improved the toxicology |  |
| CS(=O)(=O)c1ccccc1S(=O)O [byproduct of CXL-1020] |  |  |  |  |  |  |  |  | negative |
